Where two headings read alike, the source gives them in different places.
Experiments:
CYP3A4 mRNA = assay: Assay D: CYP induction screening assay in primary human hepatocytes; assay type: in vitro ADME; conditions: 48 h
Protocol: Cryopreserved plateable human hepatocytes (single donor. BioIVT) were thawed and plated in Collagen-I coated 96-well-plates at a cell density of 0.07 million cells per well.
After a 6 h attachment period, the seeding medium was replaced by serum-free William's medium E supplemented with Matrigel (0.25 mg/ml) and allowed to recover overnight. 24 h post-seeding, serum-free Williams E medium containing the test compound at a final concentration of […] and a final DMSO content of 0.1% and 0.1% DMSO (solvent-treated control), respectively, was added to predefined wells. Exposure solutions were renewed after 24 h.
After 48 h of treatment in total, the effect of the test compounds on CYP3A4 mRNA expression was assessed using the QuantiGene Plex Gene Expression Assay. Hepatocytes were lysed and total RNA was extracted using the QuantiGene Sample Processing Kit according to the instructions of the manufacturer.
mRNA quantification was conducted using a customized QuantiGene Plex Panel to analyse CYP3A4 and the housekeeper genes RPL32, EIF4E2 and GUSB according to the instructions of the manufacturer and measured on a Luminex™ instrument. Signal was reported as median fluorescence intensity (MFI), which is proportional to the number of target RNA molecules present in the sample.
For calculation of CYP3A4 mRNA induction, the signal for CYP3A4 was normalized against the geometric mean of the signal obtained for the housekeeper genes for hepatocytes exposed to test compounds in relation to solvent-treated samples according to the following equation: […]

[1] = Assay C: permeability in CACO-2 cells; assay type: in vitro ADME; conditions: human; for efflux ratio: read-out: Efflux Ratio
Protocol: Caco-2 cells (1-2×10^5 cells/1 cm^2 area) are seeded on filter inserts (Costar transwell polycarbonate or PET filters, 0.4 μm pore size) and cultured (DMEM) for 10 to 25 days. Compounds are dissolved in appropriate solvent (like DMSO, 1-20 mM stock solutions). […] The transport solution (TL) is applied to the apical or basolateral donor side for measuring A-B or B-A permeability (3 filter replicates), respectively. Samples are collected at the start and end of experiment from the donor and at various time intervals for up to 2 hours also from the receiver side for concentration measurement by HPLC-MS/MS or scintillation counting. Sampled receiver volumes are replaced with fresh receiver solution.
Efflux ratio (ER)=permeability B−A/permeability A−B

[2] = system: SIRPα signalling induced by A549 cells; assay: Assay B: SIRPα signalling assay using A549 cells; assay type: cell-based; conditions: Homo sapiens, read-out: Inhibition of SIRPα signalling induced by A549 cells: IC50
Protocol: Two cell types are independently used: the Raji cell line (lymphoblast-like human cell line derived from B lymphocytes from a Burkitt's lymphoma patient in 1963) and A549 cells (adenocarcinoma human alveolar basal epithelial cells).
Test compounds were dissolved in 100% DMSO and serially diluted into a white 384-well microtiter cell culture plate (PerkinElmer #60076780 in case of Raji assay; PDL-coated plates Greiner #781945 in case of A549 assay). 5000 Raji cells (ATCC #CC86) or 5000 A549 cells (ATCC #CCL-185) in Assay Complete Cell Plating reagent 30 (DiscoverX 93-0563R30B) were added per well. The assay plate was incubated for 48 h at 37° C., 95% humidity and 5% CO2. 15000 reporter cells (Jurkat PathHunter SIRPαV1, DiscoverX #93-1135C19) were added to each well, and the plate was incubated for 5 h at 37° C., 95% humidity and 5% CO2. Bioassay reagent 1 of the PathHunter Bioassay detection kit (DiscoverX 93-0001) was added to each well of the plate using a multichannel pipette followed by a 15 min incubation at room temperature. Afterwards bioassay reagent 2 was added followed by 60 min incubation at room temperature (incubation in the dark).
The analysis of the data was performed using the luminescence signal generated by beta-galactosidase in the PathHunter reporter cell line. The luminescence measurement was done using a Pherastar Multi-Mode Reader. Dose-response curves & IC50 data were calculated with 4-parameter sigmoidal dose response formula.

QPCT = target: T1, QPCT (Homo sapiens, UniProt Q16769); assay: Assay A: biochemical QPCT activity assay (MALDI-TOF MS, CD47 peptide substrate); conditions: read-out: Inhibition of QPCT: IC50
T1 construct: purchased Origine (OriGene) TP700028
Protocol: (§1) QPCT or QPCTL dependent conversion of N-terminal glutamine to pyroglutamate of CD47 was monitored via MALDI-TOF MS. Test compounds were dissolved in 100% DMSO and serially diluted into clear 1,536-well microtiter plates. Enzymatic reactions were set up in assay buffer containing 20 mM Tris pH 7.5, 0.1 mM TCEP, 0.01% BSA, and 0.001% Tween20. […] The plates were incubated for 10 min in a humidified incubator at 24° C. Subsequently, 2.5 μL of CD47 peptide substrate surrogate (^19[…]^33) was added to each well (final concentration: 10 μM for QPCTL/20 μM for QPCT). The plates were mixed for 30 sec at 1,000 rpm and subsequently incubated for 40 min in a humidified incubator at 24° C. […] The plates were sealed with an adhesive foil, mixed for 30 s at 1,000 rpm and stored at room temperature until preparation of the MALDI target plates. MALDI target plates were prepared as described previously. […] QPCT or QPCTL activity was monitored by calculating the ratio between product and internal standard signals followed by normalization to high (100% activity) and low (0% activity) controls. Determination of compound potencies was obtained by fitting the dose-response data to a four-parameter logistical equation.

QPCTL = target: T2, QPCTL (Homo sapiens, UniProt Q9NXS2); assay: Assay A: biochemical QPCTL activity assay (MALDI-TOF MS, CD47 peptide substrate); conditions: read-out: Inhibition of QPCTL: IC50
T2 construct: made in house
Protocol: as §1

murine hepatocytes = assay: Assay E: stability in murine hepatocytes; assay type: in vitro ADME, mouse; conditions: 1 μM, 5% species serum
Protocol: The metabolic degradation of the test compound is assayed in a murine hepatocyte suspension.
Murine hepatocytes (typically cryopreserved) are incubated in an appropriate buffer system (e.g. Dulbecco's modified eagle medium plus 3.5 μg glucagon/500 mL, 2.5 mg insulin/500 mL and 3.75 mg/500 mL hydrocortison) containing 5% species serum.
Following a (typically) 30 min preincubation in an incubator (37° C., 10% CO2) 5 μl of test compound solution (80 μM; from 2 mM in DMSO stock solution diluted 1:25 with medium) are added into 395 μl hepatocyte suspension (cell density in the range 0.25-5 Mio cells/mL, typically 1 Mio cells/mL; final concentration of test compound 1 μM, final DMSO concentration 0.05%).
The cells are incubated for six hours (incubator, orbital shaker) and samples (25 μl) are taken at 0, 0.5, 1, 2, 4 and 6 hours. Samples are transferred into acetonitrile and pelleted by centrifugation (5 min). The supernatant is transferred to a new 96-deepwell plate, evaporated under nitrogen and resuspended.
Decline of parent compound is analyzed by HPLC-MS/MS
CLint is calculated as follows CL_[…]=Dose/AUC=(C0/CD)/(AUD+clast/k)×1000/60. C0: initial concentration in the incubation [μM], CD: cell density of vital cells [10e6 cells/mL], AUD: area under the data [μM×h], clast: concentration of last data point [μM], k: slope of the regression line for parent decline [h−1].
The calculated in vitro hepatic intrinsic clearance can be scaled up to the intrinsic in vivo hepatic Clearance and used to predict hepatic in vivo blood clearance (CL) by the use of a liver model (well stirred model).
[formula] [formula] [formula] • Hepatocellularity, mouse: 120×10e6 cells/g liver • Liver factor, mouse: 55 g/kg bodyweight • Blood flow, mouse: 90 ml/(min×kg)

[3] = system: SIRPα signalling induced by Raji cells; assay: Assay B: SIRPα signalling assay using Raji cells; assay type: cell-based; conditions: Homo sapiens, read-out: Inhibition of SIRPα signalling induced by Raji cells: IC50
Protocol: Bioassay reagent 1 of the PathHunter Bioassay detection kit (DiscoverX 93-0001) was added to each well of the plate using a multichannel pipette followed by a 15 min incubation at room temperature. Afterwards bioassay reagent 2 was added followed by 60 min incubation at room temperature (incubation in the dark).
The analysis of the data was performed using the luminescence signal generated by beta-galactosidase in the PathHunter reporter cell line. The luminescence measurement was done using a Pherastar Multi-Mode Reader.

[4] = Table 9, compounds of the invention
[5] = pH 7.2, Table 7, compounds of the invention, CACO-2 cells
[6] = pH 7.2, Table 7, compounds of the invention, CACO-2 cells, permeability B-A/permeability A-B
[7] = Table 4, compounds of the invention
[8] = Table 2, compounds of the invention
[9] = Table 12, compounds of the invention

T1 sequence (Q16769 29-361): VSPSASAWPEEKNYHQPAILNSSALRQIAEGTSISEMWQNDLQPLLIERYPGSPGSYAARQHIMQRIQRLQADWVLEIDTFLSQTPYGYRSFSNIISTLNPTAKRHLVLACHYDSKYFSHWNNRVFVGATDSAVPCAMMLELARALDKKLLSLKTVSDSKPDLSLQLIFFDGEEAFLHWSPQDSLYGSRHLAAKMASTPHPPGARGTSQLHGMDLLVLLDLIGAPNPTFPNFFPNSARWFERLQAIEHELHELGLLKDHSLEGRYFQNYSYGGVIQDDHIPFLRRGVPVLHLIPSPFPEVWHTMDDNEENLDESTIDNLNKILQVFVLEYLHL
T2 sequence (Q9NXS2 whole entry, species assumed): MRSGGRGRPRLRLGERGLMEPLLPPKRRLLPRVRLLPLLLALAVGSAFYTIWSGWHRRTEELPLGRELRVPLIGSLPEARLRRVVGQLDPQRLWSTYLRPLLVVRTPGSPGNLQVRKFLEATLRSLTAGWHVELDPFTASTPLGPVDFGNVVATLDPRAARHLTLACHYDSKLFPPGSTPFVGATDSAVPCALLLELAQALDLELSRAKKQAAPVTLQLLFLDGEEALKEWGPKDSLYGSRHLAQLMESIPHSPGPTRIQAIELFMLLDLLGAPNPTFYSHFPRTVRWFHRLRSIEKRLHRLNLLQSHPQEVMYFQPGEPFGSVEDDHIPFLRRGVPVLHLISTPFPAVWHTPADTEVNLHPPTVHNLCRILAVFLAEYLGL

SMILES	n-fold induction of CYP3A4 at 10 μM (CYP3A4 mRNA; [4])	Papp A→B [1, 5]	efflux ratio [1, 6]	IC50 [2, 7]	IC50 (QPCT; [8])	IC50 (QPCTL; [8])	Mouse Hepatocyte Stability QH (murine hepatocytes; [9])	IC50 [3, 7]	n-fold induction of CYP3A4 at 10 μM (CYP3A4 mRNA; Table 10, prior art compounds)	Papp A→B ([1]; Caco-2, pH 7.2)	efflux ratio ([1]; Caco-2, pH 7.2)	IC50 ([2]; Table 5, prior art compounds)	IC50 (QPCT; Table 3, prior art compounds)	IC50 (QPCTL; Table 3, prior art compounds)	Mouse Hepatocyte Stability QH (murine hepatocytes; Table 13, prior art compounds)	IC50 ([3]; Table 5, prior art compounds)
Cn1cnnc1C1(F)CCN(c2c(C#N)cc(C(F)(F)F)nc2-c2cnc3nn(C(C)(C)C)c(C4CC4)c3c2)CC1 [Example 26]	7.9 n-fold	17 ×10⁻⁶ cm/s	4.8	11 nM	1 nM	1 nM	27%	4 nM	–	–	–	–	–	–	–	–
Cc1cc(-c2nc(C3CC3)cc(C#N)c2N2CCC(F)(c3nncn3C)CC2)cnn1 [Example 12]	4.1 n-fold	5.6 ×10⁻⁶ cm/s	9.5	145 nM	14 nM	16 nM	21%	950 nM	–	–	–	–	–	–	–	–
Cn1cnnc1C1CCN(c2c(C#N)cccc2-c2ccc3nonc3c2)CC1 [Compound 19, reference compound]	–	–	–	–	–	–	–	–	15.8 n-fold	19 ×10⁻⁶ cm/s	3.4	296 nM	106 nM	117 nM	62%	2810 nM
Cn1cnnc1C1CCN(c2c(C#N)cccc2-c2cncc3c2cnn3C)CC1 [Compound 4, reference compound]	–	–	–	–	–	–	–	–	0.8 n-fold	0.3 ×10⁻⁶ cm/s	28.1	4500 nM	313 nM	97 nM	92%	> 10000 nM
Cc1ncc(-c2cc(C#N)c(N3CCC(F)(c4nncn4C)CC3)c(-c3cnc4nn(C(F)(F)F)cc4c3)n2)cn1 [Example 25]	0.8 n-fold	3.1 ×10⁻⁶ cm/s	16.8	52 nM	3 nM	3 nM	38%	181 nM	–	–	–	–	–	–	–	–
Cc1nn(C)cc1-c1cc(C#N)c(N2CCC(F)(c3nncn3C)CC2)c(-c2cnc3nn(C(F)(F)F)cc3c2)n1 [Example 17]	3.0 n-fold	5.1 ×10⁻⁶ cm/s	9.4	22 nM	2 nM	2 nM	18%	69 nM	–	–	–	–	–	–	–	–
Cn1cnnc1C1(F)CCN(c2c(C#N)cc(-c3ccc(F)cc3)nc2-c2ccnnc2)CC1 [Example 18]	1.3 n-fold	2.3 ×10⁻⁶ cm/s	17	82 nM	5 nM	4 nM	44%	262 nM	–	–	–	–	–	–	–	–
Cc1ccc(-c2cc(C#N)c(N3CCC(F)(c4nncn4C)CC3)c(-c3cnc4nn(C(F)(F)F)cc4c3)n2)cn1 [Example 22]	0.5 n-fold	12 ×10⁻⁶ cm/s	6.8	17 nM	3 nM	1 nM	17%	130 nM	–	–	–	–	–	–	–	–
Cn1cnnc1C1(F)CCN(c2c(C#N)cc(-c3cnc(C(F)(F)F)nc3)nc2-c2cnc3nn(C(F)(F)F)cc3c2)CC1 [Example 20]	0.5 n-fold	4.3 ×10⁻⁶ cm/s	12.8	110 nM	1 nM	2 nM	<12%	618 nM	–	–	–	–	–	–	–	–
Cn1cnnc1C1(F)CCN(c2c(C#N)cc(C(F)(F)F)nc2-c2cc3cn(C(C)(C)C)nc3nc2C(F)F)CC1 [Example 14]	–	14 ×10⁻⁶ cm/s	5.3	44 nM	11 nM	28 nM	<12%	117 nM	–	–	–	–	–	–	–	–
Cn1cnnc1C1(F)CCN(c2c(C#N)cc(C(F)(F)F)nc2-c2cnc3nn(C(C)(C)C)c(C(F)F)c3c2)CC1 [Example 16]	6.0 n-fold	34 ×10⁻⁶ cm/s	1.8	17 nM	1 nM	3 nM	–	11 nM	–	–	–	–	–	–	–	–
Cn1cncc1C1CCN(c2c(C#N)cccc2-c2ccc(F)nc2)CC1 [QP5038, reference compound]	–	–	–	–	–	–	–	–	58.5 n-fold	–	–	6 nM	–	–	97%	21 nM

Reference: patent US20250250251A1, “PIPERIDINYLPYRIDINYLCARBONITRILE DERIVATIVES AS INHIBITORS OF GLUTAMINYL-PEPTIDE CYCLOTRANSFERASE AND GLUTAMINYL-PEPTIDE CYCLOTRANSFERASE LIKE PROTEIN” (Boehringer Ingelheim International GmbH, priority 2024, published 2025)
